Data from PMC7180572, “5-Alkylamino-N-phenylpyrazine-2-carboxamides: Design, Preparation, and Antimycobacterial Evaluation” (Molecules, 2020).
≈ marks a conversion by molar mass, not a printed value. Like-named read-outs stand apart in the source and are kept apart here.

Legend:
[1] = test system: Absidia corymbifera CCM 8077 (Lichtheimia corymbifera); assay: Antifungal microdilution broth method (EUCAST); format: cell-based; settings: read-out: MIC AC
[2] = test system: Mycobacterium aurum DSM 43999 (ATCC 23366); assay: Microdilution broth, modified Microplate Alamar Blue Assay, whole cell growth inhibition; format: cell-based; settings: Mycolicibacterium aurum, read-out: MIC Mycobacterium aurum
[3] = test system: Trichophyton interdigitale ATCC 9533, CCM 8377; assay: Antifungal microdilution broth method (EUCAST); format: cell-based; settings: read-out: MIC TI
[4] = test system: Klebsiella pneumoniae ATCC 10031, CCM 4415; assay: Antibacterial microdilution broth method (EUCAST)
HepG2 cells = assay: HepG2 cytotoxicity, CellTiter 96 (MTS) assay; format: cell-based, human; settings: for IC50: Homo sapiens, HepG2, 24 h, read-out: HepG2 IC50; for SI, selectivity index: IC50 (HepG2)/MIC against Mtb H37Ra (in µM)
[5] = test system: Mycobacterium smegmatis DSM 43465 (ATCC 607); assay: Microdilution broth, modified Microplate Alamar Blue Assay, whole cell growth inhibition; format: cell-based; settings: Mycolicibacterium smegmatis, read-out: MIC Mycobacterium smegmatis
[6] = test system: Enterococcus faecalis ATCC 29212, CCM 4224; assay: Antibacterial microdilution broth method (EUCAST); format: cell-based; settings: read-out: MIC EF
[7] = test system: Escherichia coli ATCC 25922, CCM 3954; assay: Antibacterial microdilution broth method (EUCAST); format: cell-based; settings: read-out: MIC EC
[8] = test system: Aspergillus flavus CCM 8363; assay: Antifungal microdilution broth method (EUCAST); format: cell-based; settings: read-out: MIC AFla
[9] = test system: Candida albicans ATCC 24433, CCM 8320; assay: Antifungal microdilution broth method (EUCAST); format: cell-based
[10] = test system: Candida krusei ATCC 6258, CCM 8271; assay: Antifungal microdilution broth method (EUCAST); format: cell-based; settings: Pichia kudriavzevii
[11] = test system: Aspergillus fumigatus ATCC 204305; assay: Antifungal microdilution broth method (EUCAST); format: cell-based; settings: read-out: MIC AF
[12] = test system: Mycobacterium tuberculosis H37Ra ITM-M006710 (ATCC 9431); assay: Microdilution broth, modified Microplate Alamar Blue Assay, whole cell growth inhibition; format: cell-based; settings: Mycobacterium tuberculosis; in vitro, Middlebrook 7H9 broth, resazurin; read-out: MIC Mtb H37Ra
[13] = test system: Candida parapsilosis ATCC 22019, CCM 8260; assay: Antifungal microdilution broth method (EUCAST); format: cell-based; settings: Lodderomyces parapsilosis
[14] = test system: Acinetobacter baumanii ATCC 19606, DSM 30007; assay: Antibacterial microdilution broth method (EUCAST); format: cell-based; settings: Acinetobacter baumannii
[15] = test system: Staphylococcus aureus spp.aureus ATCC 29213, CCM 4223; assay: Antibacterial microdilution broth method (EUCAST); format: cell-based; settings: read-out: MIC SA
[16] = test system: Staphylococcus epidermidis ATCC 12228, CCM 4418; assay: Antibacterial microdilution broth method (EUCAST); format: cell-based; settings: read-out: MIC SE
[17] = test system: Candida tropicalis ATCC 750, CCM 8264; assay: Antifungal microdilution broth method (EUCAST); format: cell-based; settings: read-out: MIC CT
[18] = test system: Pseudomonas aeruginosa ATCC 27853, CCM 3955; assay: Antibacterial microdilution broth method (EUCAST); format: cell-based; settings: read-out: MIC PA
[19] = test system: Staphylococcus aureus methicillin resistant ATCC 43300, CCM 4750; assay: microbe, parasite or virus in culture; format: cell-based; settings: ATCC 43300 / CCM 4750 / MRSA, read-out: MIC MRSA

## CCCCNc1cnc(C(=O)Nc2cccc(O)c2)cn1 [Compound 2b, 5-(Butylamino)pyrazine-N-(3-hydroxyphenyl)-2-carboxamide]
[1]; CCM8077, 24 h
  MIC: > 125 µM
[1]; CCM8077, 48 h
  MIC: > 125 µM
[2]
  MIC: ≥ 500 µg/mL
[3]; 72 h
  MIC: > 125 µM
[3]; 120 h
  MIC: > 125 µM
[4]; 24h
  MIC KP: > 500 µM
[4]; 48h
  MIC KP: > 500 µM
HepG2 cells
  IC50: > 25 µM
  SI, selectivity index: >0.92
[5]
  MIC: ≥ 500 µg/mL
[6]; 24 h
  MIC: > 500 µM
[6]; 48 h
  MIC: > 500 µM
[7]; 24 h
  MIC: > 500 µM
[7]; 48 h
  MIC: > 500 µM
[8]; CCM8363, 24 h
  MIC: > 125 µM
[8]; CCM8363, 48 h
  MIC: > 125 µM
[9]; 24 h, read-out: MIC CA
  MIC: > 125 µM
[9]; 48 h, read-out: MIC CA
  MIC: > 125 µM
[10]; 24 h, read-out: MIC CK
  MIC: > 125 µM
[10]; 48 h, read-out: MIC CK
  MIC: > 125 µM
[11]; ATCC204305, 24 h
  MIC: > 125 µM
[11]; ATCC204305, 48 h
  MIC: > 125 µM
[12]
  MIC: 7.81 µg/mL (≈ 27.3 µM)
[13]; 24 h, read-out: MIC CP
  MIC: > 125 µM
[13]; 48 h, read-out: MIC CP
  MIC: > 125 µM
[14]; 24h
  MIC: > 500 µM
[14]; 48h
  MIC: > 500 µM
[15]; 24 h
  MIC: > 500 µM
[15]; 48 h
  MIC: > 500 µM
other
  melting point: 203 to 204 °C
[16]; 24 h
  MIC: > 500 µM
[16]; 48 h
  MIC: > 500 µM
[17]; 24 h
  MIC: > 125 µM
[17]; 48 h
  MIC: > 125 µM
[18]; 72 h
  MIC: > 500 µM
[18]; 120 h
  MIC: > 500 µM
[19]; 24 h
  MIC: > 500 µM
[19]; 48 h
  MIC: > 500 µM

## CCCCNc1cnc(C(=O)Nc2ccc(O)cc2)cn1 [Compound 3b, 5-(Butylamino)pyrazine-N-(4-hydroxyphenyl)-2-carboxamide]
[1]; CCM8077, 24 h
  MIC: > 250 µM
[1]; CCM8077, 48 h
  MIC: > 250 µM
[2]
  MIC: ≥ 500 µg/mL
[3]; 72 h
  MIC: > 250 µM
[3]; 120 h
  MIC: > 250 µM
[4]; 24h
  MIC KP: > 500 µM
[4]; 48h
  MIC KP: > 500 µM
HepG2 cells
  IC50: 378 µM
  SI, selectivity index: 3.46
[5]
  MIC: ≥ 500 µg/mL
[6]; 24 h
  MIC: > 500 µM
[6]; 48 h
  MIC: > 500 µM
[7]; 24 h
  MIC: > 500 µM
[7]; 48 h
  MIC: > 500 µM
[8]; CCM8363, 24 h
  MIC: > 250 µM
[8]; CCM8363, 48 h
  MIC: > 250 µM
[9]; 24 h, read-out: MIC CA
  MIC: 62.5 µM (≈ 17.9 µg/mL)
[9]; 48 h, read-out: MIC CA
  MIC: 62.5 µM (≈ 17.9 µg/mL)
[9]; read-out: MIC CA (Candida albicans)
  MIC: 62.5 µM (≈ 17.9 µg/mL)
[10]; 24 h, read-out: MIC CK
  MIC: > 250 µM
[10]; 48 h, read-out: MIC CK
  MIC: > 250 µM
[10]; read-out: MIC CK (Candida krusei)
  MIC: > 250 µM
[11]; ATCC204305, 24 h
  MIC: > 250 µM
[11]; ATCC204305, 48 h
  MIC: > 250 µM
[12]
  MIC: 31.2 µg/mL (≈ 109 µM)
[13]; 24 h, read-out: MIC CP
  MIC: 250 µM (≈ 71.6 µg/mL)
[13]; 48 h, read-out: MIC CP
  MIC: 250 µM (≈ 71.6 µg/mL)
[13]; read-out: MIC CP (Candida parapsilosis)
  MIC: 250 µM (≈ 71.6 µg/mL)
[14]; 24h
  MIC: > 500 µM
[14]; 48h
  MIC: > 500 µM
[15]; 24 h
  MIC: > 500 µM
[15]; 48 h
  MIC: > 500 µM
other
  melting point: 208 to 211.4 °C
[16]; 24 h
  MIC: > 500 µM
[16]; 48 h
  MIC: > 500 µM
[17]; 24 h
  MIC: > 250 µM
[17]; 48 h
  MIC: > 250 µM
[18]; 72 h
  MIC: > 500 µM
[18]; 120 h
  MIC: > 500 µM
[19]; 24 h
  MIC: > 500 µM
[19]; 48 h
  MIC: > 500 µM

## CCCCNc1cnc(C(=O)Nc2ccc(C)cc2)cn1 [Compound 4b, 5-(Butylamino)-N-(p-tolyl)pyrazine-2-carboxamide]
[1]; CCM8077, 24 h
  MIC: > 125 µM
[1]; CCM8077, 48 h
  MIC: > 125 µM
[2]
  MIC: ≥ 250 µg/mL
[3]; 72 h
  MIC: > 125 µM
[3]; 120 h
  MIC: > 125 µM
[4]; 24h
  MIC KP: > 125 µM
[4]; 48h
  MIC KP: > 125 µM
HepG2 cells
  IC50: > 50 µM
[5]
  MIC: ≥ 250 µg/mL
[6]; 24 h
  MIC: > 125 µM
[6]; 48 h
  MIC: > 125 µM
[7]; 24 h
  MIC: > 125 µM
[7]; 48 h
  MIC: > 125 µM
[8]; CCM8363, 24 h
  MIC: > 125 µM
[8]; CCM8363, 48 h
  MIC: > 125 µM
[9]; 24 h, read-out: MIC CA
  MIC: > 125 µM
[9]; 48 h, read-out: MIC CA
  MIC: > 125 µM
[10]; 24 h, read-out: MIC CK
  MIC: > 125 µM
[10]; 48 h, read-out: MIC CK
  MIC: > 125 µM
[11]; ATCC204305, 24 h
  MIC: > 125 µM
[11]; ATCC204305, 48 h
  MIC: > 125 µM
[12]
  MIC: ≥ 250 µg/mL
[13]; 24 h, read-out: MIC CP
  MIC: > 125 µM
[13]; 48 h, read-out: MIC CP
  MIC: > 125 µM
[14]; 24h
  MIC: > 125 µM
[14]; 48h
  MIC: > 125 µM
[15]; 24 h
  MIC: > 125 µM
[15]; 48 h
  MIC: > 125 µM
other
  melting point: 162.6 to 163.6 °C
[16]; 24 h
  MIC: > 125 µM
[16]; 48 h
  MIC: > 125 µM
[17]; 24 h
  MIC: > 125 µM
[17]; 48 h
  MIC: > 125 µM
[18]; 72 h
  MIC: > 125 µM
[18]; 120 h
  MIC: > 125 µM
[19]; 24 h
  MIC: > 125 µM
[19]; 48 h
  MIC: > 125 µM

## CCCCCCNc1cnc(C(=O)Nc2ccc(O)cc2)cn1 [Compound 3d, 5-(Hexylamino)pyrazine-N-(4-hydroxyphenyl)-2-carboxamide]
[1]; CCM8077, 24 h
  MIC: > 500 µM
[1]; CCM8077, 48 h
  MIC: > 500 µM
[2]
  MIC: ≥ 500 µg/mL
[3]; 72 h
  MIC: > 500 µM
[3]; 120 h
  MIC: > 500 µM
[4]; 24h
  MIC KP: > 500 µM
[4]; 48h
  MIC KP: > 500 µM
HepG2 cells
  IC50: 58.6 µM
  SI, selectivity index: 4.71
[5]
  MIC: 250 µg/mL (≈ 795 µM)
[6]; 24 h
  MIC: > 500 µM
[6]; 48 h
  MIC: > 500 µM
[7]; 24 h
  MIC: > 500 µM
[7]; 48 h
  MIC: > 500 µM
[8]; CCM8363, 24 h
  MIC: > 500 µM
[8]; CCM8363, 48 h
  MIC: > 500 µM
[9]; 24 h, read-out: MIC CA
  MIC: > 500 µM
[9]; 48 h, read-out: MIC CA
  MIC: > 500 µM
[10]; 24 h, read-out: MIC CK
  MIC: > 500 µM
[10]; 48 h, read-out: MIC CK
  MIC: > 500 µM
[11]; ATCC204305, 24 h
  MIC: > 500 µM
[11]; ATCC204305, 48 h
  MIC: > 500 µM
[12]
  MIC: 3.91 µg/mL (≈ 12.4 µM)
[13]; 24 h, read-out: MIC CP
  MIC: > 500 µM
[13]; 48 h, read-out: MIC CP
  MIC: > 500 µM
[14]; 24h
  MIC: > 500 µM
[14]; 48h
  MIC: > 500 µM
[15]; 24 h
  MIC: > 500 µM
[15]; 48 h
  MIC: > 500 µM
other
  melting point: 157.7 to 161.5 °C
[16]; 24 h
  MIC: > 500 µM
[16]; 48 h
  MIC: > 500 µM
[17]; 24 h
  MIC: > 500 µM
[17]; 48 h
  MIC: > 500 µM
[18]; 72 h
  MIC: > 500 µM
[18]; 120 h
  MIC: > 500 µM
[19]; 24 h
  MIC: > 500 µM
[19]; 48 h
  MIC: > 500 µM
